“Also recorded” adds a separate entry of the source. Structures can show the parent of a compound that is named as a salt.
How the values were obtained:
[1] = test system: Arabidopsis thaliana seedlings; experiment: Odor Exposure assay, Arabidopsis thaliana seedlings (root and leaf development); type: in vivo; settings: for root growth: 3.5-day exposure; for root growth / lateral root growth (number of lateral roots) / leaf development (number of large / true leaves): headspace of 1% v/v in Paraffin oil; for lateral root growth (number of lateral roots) / leaf development (number of large / true leaves) / root growth (primary root length): 7-day exposure; for root growth (primary root length): headspace of solution in Paraffin oil
Method: The Odor Exposure assay consists of controlled exposure of volatile odor compounds to model plant Arabidopsis within enclosed aquariums and similar growth conditions (23° C. with a 12-hour light/dark cycle). For Arabidopsis, seedlings were aligned on agar plates for growth after a 4-day cold treatment process. The agar plates with seedlings were then placed in enclosed aquariums with moist paper towels soaked in 10 ml of DI water for humidity. The plates were placed along the wall, approximately 12 cm from odor dispensers which resided in the center of the glass tank.
The test compound odor dispensers, consisting of (60×15 mm) polystyrene Petri dishes containing 2 ml of 1% v/v in PO, are replaced at the 3.5, 5, and 6-day time mark during the 7-day experiment. Root growth is marked during each time mark and the plates were imaged. The plants are to be collected after the 7-day exposure, photographed, and the leaves/roots carefully dissected separated, flash frozen in liquid nitrogen, and preserved for future sequencing. Root growth is measured using ImageJ.
In order to study the physiological effects of long-term exposure to microbial volatiles the model system Arabidopsis was exposed for […] to diacetyl, a volatile chemical emitted by fermentation by yeast or microbial degradation in the soil associated with roots (R. J. Morcillo et al., EMBO J 39, e102602 (2020); M. A. Farag, et al., Phytochemistry 67, 2262-2268 (2006); and C. M. Ryu et al., P Natl Acad Sci USA 100, 4927-4932 (2003). The Odor Exposure assay consisted of controlled exposure of volatile HDAC inhibiting compounds to model plant Arabidopsis within enclosed aquariums and similar growth conditions. The test compound odor cartridges, consisting of 60×15 mm polystyrene Petri dishes containing 2 ml of indicated concentration in Paraffin Oil, were replaced at the 3.5, 5, and 6-day time mark during the 7-day experiment (FIG. 1A, left). In separate experiments the weight loss from the odor cartridges over time was measured and used it to calculate the concentration of diacetyl in the glass chambers in parts per million (FIG. 1A, right).
In order to directly evaluate whether exposure to vapors of the four HDAC-inhibitory VOCs affect root development, we performed a set of experiments using A. thaliana seedlings as before. Solutions for each of the four chemicals on a small petri dish were placed away from the seedlings growing in agar plate and enclosed in glass tank. The Root tips were marked at specified days post treatment start and photographs analyzed. The plants were collected after the 7-day exposure, photographed, and the roots were separated. Detailed measurements were made from the photos using ImageJ and the root length and numbers of lateral roots quantified at day 3.5 and day 7 after start if the treatment (FIG. 1B).
The Odor Exposure assay consists of controlled exposure of volatile odor compounds to model plant Arabidopsis within enclosed aquariums and similar growth conditions (23° C. with a 12-hour light/dark cycle). The test compound odor cartridges, consisting of (60×15 mm) polystyrene Petri dishes containing 2 ml of 1% v/v in paraffin oil (PO), were replaced at the 3.5, 5, and 6-day time mark during the 7-day experiment. Root growth was marked during each time point and the plates were imaged. Numbers of true leaves were also counted. The plants are to be collected after the 7-day exposure, photographed, and the leaves/roots carefully dissected separated, flash frozen in liquid nitrogen, and preserved for future sequencing. Root growth is measured using ImageJ.

[2] = test system: A. thaliana plants (Col-0); experiment: Flowering assay; type: in vivo, Arabidopsis thaliana; settings: vapors from 0.1% solution
Description: Dramatic effects of VOCs have been seen in the seedling stage. The effects on with flowering timing were observed, since the process involves numerous changes in gene expression and therefore potentially susceptible to HDAC inhibitory volatiles. Mutants in HDACs like HDA5 show delayed flowering due to upregulation of flowering repressor genes like FLC and MAF1 (M. Luo et al., Plant J 82, 925-936 (2015)). Conversely, mutants in HDA9lead to early flowering due to increased expression of FLOWERING LOCUS T (FT) and AGAMOUS-LIKE 19 (AGL19) (M. J. Kang, et al., New Phytol 206, 281-294 (2015)). We placed 3 weeks old A. thaliana plants in the glass chambers and exposed them to the vapors of two of the VOCs, diacetyl and α-angelica lactone volatilizing from 0.1% solutions in the glass chamber.
Twenty-seven day old A. thaliana plants (Col-0), that had been transplanted at day 7 to soil, were placed in 10-gallon glass aquarium as chamber along with a petridish containing 2 ml of chemical dissolved in PO or PO alone were placed at the other side of the container. Plants were exposed to odors until all plants began to flower, with odor cartridges being replaced daily. Signs of flower buds opening were counted as plant flowering. One-way analysis of Variance (ANOVA) between groups was performed for plant exposure quantitative data using Graph Pad Prism 9.

[3] = test system: Class I and Class II HDACs; experiment: In vitro assays with purified human Class I and II HDACs (panel statements); type: biochemical; settings: 15 mM
Method: Presented are data for selected compounds that act as Histone deacetylase inhibitors in vitro or HDAC inhibitors. 26 compounds were screened against purified human HDACs.
HDAC activity of class I HDACs (HDAC1 and 3) was measured with the fluorometric HDAC Activity Assay kit: HDAC1 (10011563, Cayman Chemical, Ann Arbor, MI) and HDAC3 (50073 BPS Bioscience, San Diego, CA), according to the manufacturer's instructions. HDAC activity of class II HDACs (HDAC4 and HDAC6) was measured with the fluorometric HDAC Activity Assay kit: HDAC4, […] (50064 and 50076, BPS Bioscience, San Diego, CA), according to the manufacturer's instructions. All compounds were tested in single dose duplicate mode at 15 mM concentrations in 1% DMSO, based on the IC50 of 2,3-butanedione established in earlier work. Due to interference, concentrations of >30 mM were not used in the IC50 calculation. To account for any interference at lower concentrations, all baseline measurements of blank wells (no HDAC enzyme) were performed and subtracted with the various concentrations of 2,3-butanedione.
Diacetyl and 3 structurally related VOCs were evaluated using in vitro assay kits for measuring activity of four purified HDACs. Of the four VOCs), each has a different functional group, two are natural in origin, previously detected from microbes that are known to be present in soil (M. C. Lemfack et al., Nucleic Acids Res 46, D1261-D1265 (2018); and R. H. Cagan, W. N. Zeiger, Proc. Nat. Acad. Sci. U.S.A. 75, 4679-4683 (1978)) and two that are not (α-angelica lactone and ethyl pyruvate). […] All 4 VOCs inhibited both Class I HDACs (L. L. Walling, The Myriad Plant Responses to Herbivores. J Plant Growth Regul 19, 195-216 (2000); and M. Heil, R. Karban, Trends Ecol Evol 25, 137-144 (2010)) and the Class II HDAC6 with differences in degree (FIG. 2A,B).

[4] = test system: bacteria and fungi; settings: literature (Debebe et al.); cited from earlier work
[5] = test system: SH-SY5Y Cancer cell line; experiment: Cancer cell viability assay, SH-SY5Y; type: cell-based; settings: 33 micro-molar
Method: (§1) Cells were maintained in a 37° C. incubator with 5% CO2 throughout the experiment. Compound stocks were dissolved in 10% DMSO, but final concentrations were made fresh in complete media as needed. 10% DMSO solvent was used as control in complete media. Cells were seeded onto 12-well plates and allowed 12-24 hours until treatment began to allow cells to adhere to wells. This was followed by minimum 5-day treatment of compounds, changing the media with treatment every 48 hours. Cell lines A549, PC3, and SK-MEL-5 were seeded at 8000 cells/well which would provide 80-100% confluency after 6-day growth. SH-SY5Y was seeded at 8000 cells/well then 16,000 cells/well due to slower growth and given at least 10 days for sufficient growth. After allotted growth times, cell counts were performed via Countess™ automated cell counter. All assays were completed with a minimum of triplicate replicates for all conditions and analyzed through GraphPad Prism One-way ANOVA for significance.

[6] = test system: PC3 Cancer cell line; experiment: Cancer cell viability assay, PC3; type: cell-based; settings: 33 uM, triplicates
Method: as §1

[7] = test system: histone deacetylase enzymes (HDACs); settings: literature (Shimazu et al.); cited from earlier work
[8] = test system: A. thaliana plants (Col-0); experiment: Weed killing assay; type: in vivo, Arabidopsis thaliana; settings: 1% (volume/volume) in PO, 7 days vapor exposure, 4 weeks recovery
Description: Since large scale changes in gene expression occur it is presumed that higher doses of some of the compounds could negatively affect some plants, even causing death. Since Arabidopsis thaliana is also considered a type of weed and goes by the common name Thale cress, it was used as a model to test the weed killing potential at higher doses. In order to evaluate the activity of some of these volatiles in plant killing twenty-seven day old A. thaliana plants (Col-0), that had been transplanted at day 7 to soil, were placed in 10-gallon glass aquarium as chamber along with a petridish containing 2 ml of chemical dissolved in PO at 1% (volume/volume) or PO alone were placed at the other side of the container. Plants were exposed to odor vapors for 7 days and observed for death.
Twenty-seven day old A. thaliana plants (Col-0), that had been transplanted at day 7 to soil, were placed in 10-gallon glass aquarium as chamber along with a petridish containing 2 ml of chemical dissolved in PO at 1% (volume/volume) or PO alone were placed at the other side of the container. Plants were exposed to odor vapors for 7 days and observed for death.

[9] = listed as Alpha angelica lactone

In the case of CC1=CCC(=O)O1 [alpha angelica lactone], the root growth [1] is reported as “significant root growth inhibition”, the “lateral root growth (number of lateral roots)” value (“lateral root growth” for short) [1, 9] is reported as “significant phenotypic changes; also recorded: promoted lateral root growth” and the “leaf development (number of large / true leaves)” value [1, 9] is reported as “significant phenotypic changes”. The “leaf development (number of large / true leaves)” value ([1]; listed as a-angelica lactone) was “significant decreases”, the “leaf development (number of large / true leaves)” value ([1]; listed as α-Angelica lactone) was “changes in the number of true leaf development/growth” and the “delay in flowering (in words)” value [2] was “approximately a week”. The “inhibition of Class II HDACs compared with Class I” value [3] was “inhibits only Class 2 HDACs strongly” and the “inhibition of Class II HDACs compared with Class I” value ([3]; listed as α-angelica lactone) was “inhibited Class II HDACs more strongly than Class I”.
In the case of CCOC(=O)C(C)=O [ethyl pyruvate], the “antimicrobial action on bacteria and fungi” value [4] is listed as “potent antimicrobial”, the root growth [1] is listed as “significant root growth inhibition” and the “lateral root growth” value [1] is listed as “inhibition; also recorded: significant phenotypic changes”. For the same molecule, the “lateral root growth” value ([1]; listed as Ethyl pyruvate) was “inhibited”, the “root growth (primary root length)” value [1] was “inhibited” and the “changes in proliferation, SH-SY5Y” value [5] was “Significant changes in proliferations were noted only for 33 micro molar 2,3-butanedione treatment”. For the same molecule, the “changes in proliferation, PC3” value [6] was “No Significant changes in proliferations”.
With CCC(=O)C(=O)CC [3,4-hexanedione] the “lateral root growth” value [1] was “significant phenotypic changes; also recorded: promoted lateral root growth”, the “leaf development (number of large / true leaves)” value [1] was “changes in the number of true leaf development/growth; also recorded: significant increase; also recorded: significant phenotypic changes; also recorded: The trend for the compounds were to inhibit leave development, except for 3,4-hexanedione” and the “root growth (primary root length)” value [1] was “all the compounds except 3,4-hexanedione demonstrated significant root growth inhibition”.
In the case of CC(O)CC(=O)O (stereo not drawn) [β-hydroxybutyrate], the “inhibition of histone deacetylase enzymes (HDACs)” value [7] is given as “known inhibitor”.
In the case of CCCOC=O [propyl formate], the “plants killed (dead)” value [8] is reported as 7 of 8, the “changes in proliferation, SH-SY5Y” value [5] is reported as “Significant changes in proliferations were noted only for 33 micro molar 2,3-butanedione treatment” and the “changes in proliferation, PC3” value [6] is reported as “No Significant changes in proliferations”.

Source: patent publication US20250212873A1, “VOLATILE HDAC INHIBITORS FOR THERAPEUTIC AND PLANT APPLICATIONS” (The Regents of the University of California, priority 2022, published 2025)
